Values quoted from earlier work in patent US20030125233A1, “Use of urokinase inhibitors for the treatment and/or prevention of pulmonary hypertension and/or cardiac remodelling” (priority 2000, published 2003).

Experiments:
[1] = test system: angiogenesis/capillary network formation; conditions: Alliegro et al. 1991
tumor metastasis = conditions: Kellen et al. 1988

For `N=C(N)NC(=O)c1nc(Cl)c(N)nc1N` [amiloride], the “angiogenesis/capillary network formation in vitro” value [1] is listed as “inhibit” and the “tumor metastasis in vivo” value (tumor metastasis) is listed as “inhibit”.
